# Test: Drug releasing test of the vaginal ring (shaking water bath, HPLC)
# Type: physicochemical
# Conditions: device of the current invention vs prior art device, FIG. 4 vs FIG. 3 and FIG. 6 vs FIG. 5
# Method: Drug Releasing Test: Devices used: 1. High Pressure Liquid Chromatography (HPLC). Shimadzu LC-1 OA T • 2. Shaking water bath: HZS-H Process: • 1. Tie the vaginal ring into a big test tube (125 ml). Add 100 ml distilled water into the tube under 37C. Shake the testing tube for 24 hours with shaking rate of 60/minute. Then take the vaginal ring out. • 2. The standard sample is the Mifepristone provided by Shanghai Family Planning Institute. • 3. C-18-[…] Analytic column (Brand: Shimadzu): Pre-set HPLC. The testing conditions are: • Wavelength 310 nm. • Sensitivity: 0.1 AUFS • Speed: 3 Atten. 5 • Flow phase: methanol: water=70:30 • Moving speed=1 ml/minute • Injection amount: 10 μl • Peak time: 5.48 minutes Take 23 μl/ml standard sample, 10 μl injection sample to get the peak area of 656504-656800. Prepare the calibration based on the amount contained in 100 ml.
row,Compound,"delivery rate over days, compared with prior art vaginal ring"
1,C#C[C@]1(O)CC[C@H]2[C@@H]3CCC4=Cc5oncc5C[C@]4(C)[C@H]3CC[C@@]21C [Danazol],higher delivery rate of this drug over a longer period of time
2,"CC#C[C@]1(O)CC[C@H]2[C@@H]3CCC4=CC(=O)CCC4=C3[C@@H](c3ccc(N(C)C)cc3)C[C@@]21C [Mifestone, Mifepristone]",significantly higher over a longer period of time

# From US20050197651A1, “Vaginal ring preparation and its application” (priority 2001, published 2005)
